{"source": "patent US20110064773A1", "about": "“PHARMACEUTICAL COMPOSITIONS COMPRISING A THYROID HORMON AND THEIR THERAPEUTIC USE” (UNIVERSITE JOSEPH FOURIER, priority 2007, published 2011)", "key": {"[1]": {"tested_on": "normal rats receiving a high-fat diet", "settings": "daily peritoneal injection, vs untreated rats; cited from earlier work"}, "[2]": {"tested_on": "nuclear receptors of the thyroid hormones, TRα-1 and TRβ-1", "settings": "literature statements; cited from earlier work"}, "Wistar rats [3]": {"tested_on": "Wistar rats", "experiment": "Plasma concentrations of glucose, triglycerides, cholesterol, FFA and HDL in Wistar rats", "assay_type": "in vivo, rat", "settings": "day of sacrifice, vs placebo", "source_text": "These measurements were done on venous blood of the rats the day of the sacrifice.\n(§1) At the end of the experimental period, animals were sacrificed by decapitation, in order to avoid the well-known effects of general anesthetics on mitochondrial metabolism. Blood samples were immediately collected and plasma was frozen for subsequent determination of serum metabolites and hormones. Liver, muscles and fat depots were quickly excised and weighed. Liver median lobe was rapidly freeze-clamped. Muscles (plantaris, soleus and gastrocnemius) were frozen in isopentane precooled in liquid nitrogen. Mesenteric fat consisted of adipose tissue surrounding the gastro-intestinal tract from the gastro-oesophageal sphincter to the end of the rectum with special care taken in distinguishing and removing the pancreas. Retroperitoneal fat pad was taken as the distinct depot behind each kidney along the lumbar muscles. Epididymal fat consisted of adipose tissue on top of the epididymis. For subcutaneous depot measurement, a rectangular piece of skin was taken on the right side of each animal from the median line of the abdomen between the spine and the right hip to the first rib. Interscapular brown adipose tissue was removed and dissected free from adjacent muscles and white adipose tissue. The heart ventricles, the right kidney and the spleen were also excised, weighed and frozen.\nGlucose and 3-hydroxybutyrate (3-HB) were measured enzymatically and non esterified fatty acid (NEFA) by colorimetric assay (Wako Chemicals).\nTriglycerides and cholesterol were measured by classical routine automate apparatus."}, "Wistar rats [4]": {"tested_on": "Wistar rats", "experiment": "Indirect calorimetry (energy expenditure, respiratory quotient) of Wistar rats", "assay_type": "in vivo, rat", "settings": "25 μg/100 g BW pellet, vs placebo", "source_text": "Energy expenditure as well as the nature of substrate oxidized (carbohydrates or lipids) were investigated by indirect calorimetry. This principle is based on the determinations of CO2 release (VCO2) and O2 consumption (VO2) by each animal. It assumes that O2 is entirely involved in substrate oxidation in the respiratory chain (leading to water production) while CO2 release is related to substrate decarboxylation (in the Krebs' cycle). These measurements allow assessing energy expenditure (EE) and respiratory quotient ([…], RQ). EE represent the absolute energy dissipation during rest and activity. RQ is a relative measurement indicating the ratio of carbohydrate versus lipid involved in oxidative pathway. A ratio of 1.0 indicates exclusive carbohydrate oxidation while a ratio of 0.7 indicates exclusive lipid oxidation. Each value between these two extreme values indicates the relative proportion of each substrate (of note protein oxidation was not evaluated). As an example, RQ approaches 0.7 during fasting, indicating lipid oxidation, conversely after feeding RQ increases close to 1 indicating carbohydrate oxidation resulting from food intake and blood insulin rise. Likewise, animals fed high-carbohydrate diets have higher RQs than those fed high-fat diets.\nThe indirect calorimetry system (Panlab, Barcelona, Spain) consists of cages, pumps, flow controllers, valves, and analyzers. It is computer-controlled in order to sequentially measure O2 and CO2 concentrations as well as air flow in four separate cages allowing four simultaneous determinations. Rats are isolated in one of the four metabolic chambers, and room air is used as a reference to monitor ambient O2 and CO2 concentrations periodically.\nAt predefined intervals, the computer sends a signal to store differential CO2 and O2 concentrations, flow rate, allowing computing VCO2, VO2, RQ, and EE (Weir equation) with data acquisition hardware (Metabolism, Panlab, Barcelona, Spain)."}, "muscle mitochondria": {"tested_on": "muscle mitochondria", "experiment": "Rate of muscle mitochondrial oxygen consumption (JO2) of treated Wistar rats", "assay_type": "in vivo, rat", "settings": "250 μg/kg BW/day, vs placebo", "protocol": "(§2) The major part of the liver and the red part of each quadriceps were rinsed, and chopped into isolation medium (250 mM sucrose, 20 mM Tris-HCl and 1 mM EGTA-Tris, pH 7.4). Nuclei and cell debris were removed by centrifugation at 800 g for 10 min. Mitochondria were then isolated from the supernatant by spinning twice at 8,000 g for 10 minutes. The mitochondrial pellet was resuspended in 0.5 ml of isolation buffer and kept on ice. Mitochondrial protein was measured by the bicinchoninic acid method (Pierce, Rockford, Ill.). The final mitochondrial suspensions were maintained on ice and were used for measurements of oxygen consumption rate.\n(§3) The rate of mitochondrial oxygen consumption (JO2) was measured at 30° C. in an incubation chamber with a Clark-type O2 electrode filled with 2 ml of incubation medium (125 mM KCl, 10 mM Pi-Tris, 20 mM Tris-HCl, 0.1 mM EGTA, pH 7.2). All measurements were performed using mitochondria (1.0 or 0.2 mg mitochondrial protein/ml for liver and skeletal muscle) incubated either with various substrates: glutamate/malate (5 mM/2.5 mM) and succinate (5 mM), alone or in combination, palmitoyl carnitine (55 μM) and octanoyl carnitine (100 μM). For each substrate, JO2 was recorded in the presence of the substrate alone (State 2) and following the addition of 1 mM ADP (state 3). Oligomycin (1.25 μg/mg protein) was added to the mitochondrial suspension to determine the non-phosphorylating respiratory rate (state 4). The incubation medium was constantly stirred with a built-in electromagnetic stirrer and bar flea. The efficiency of the mitochondrial oxidative phosphorylation was assessed by the state 3/state 4 ratio which measures the degree of control imposed on oxidation by phosphorylation (respiratory control ratio, RCR)."}, "Wistar rats [5]": {"tested_on": "Wistar rats", "experiment": "Body composition (adipose tissues, skeletal muscles, brown adipose tissue) of Wistar rats", "assay_type": "in vivo, rat", "settings": "three weeks, vs placebo", "source_text": "as §1"}, "Wistar rats [6]": {"tested_on": "Wistar rats", "experiment": "Growth rate (body weight) and food intake of Wistar rats", "assay_type": "in vivo, rat", "protocol": "Adult male rat bred in the animal room facilities of Laboratory of Fundamental and Applied Bioenergetics (Wistar strain) or purchased from Charles-River Laboratories, Domaine des oncins, L'ARBRESLE France [(genetically obese normoglycemic (Zucker or Fa/Fa) or diabetic (ZDF)] were caged individually in stainless steel hanging cages and maintained in a 22° C., 50±10% relative humidity and 12 h:12 h light:dark environment. All animals were fed ad libitum with a standard rat chow (Safe A04, Villemoisson, France) and tap water. Body mass and food intake were recorded twice/thrice a week and fresh food was provided at the same time to ensure minimal disturbance to the animals' food behavior.\nEight-week old rats (300 g±10 g) were anesthetized by simultaneous intraperitoneal injection of diazepam 4 mg/kg and ketamine 100 mg/kg. In order to maintain body temperature during the surgery (10 min), animals were placed on a warm blanket. After interscapular shaving, a small incision of 0.5 cm of the skin allows the subcutaneous implantation of a small pellet (containing rT3 or 3′,3-T2) with a 10-gauge precision trochar. The pellets, manufactured by Innovative Research of America (Sarasota, Fla., USA) are constituted of a biodegradable matrix that effectively and continuously release the active product in the animal.\n[…] (reverseT3) or 3-3′ diiodothyronine (3-3′ T2) were used at different doses (5, 0.5, or 0.1 mg/pellet) were implanted in order to provide a continuous and constant drug delivery over 60 days (which represents 25 μg, 2.5 μg or 0.5 μg/day/100 g BW).\nWistar rats were treated with rT3 hormone by a daily intraperitoneal injection (IP) (25 μg/100 g BW), a daily sub-cutaneous injection (SC) (25 μg/100 g BW), or a per os administration included in the rat food (25 μg/100 g BW). The continuous and constant administration was performed by using a pellet (25 μg/100 g BW).\nHowever the role of the administration site was further investigated by comparing continuous administration of rT3 by osmotic pump implanted either subcutaneously or intraperitonally with the reference treatment administered by sub-cutaneous pellets. Wistar rats were treated for 21 days with placebo, sub-cutaneous pellet or sub-cutaneous or intraperitoneal osmotic pumps. rT3 was administered continuously (2.5 μg/100 g).\nWistar rats were treated by a continuous and constant administration of low doses of rT3 by 3 different methods of administration: • a sub-cutaneous pellet, • an osmotic pump placed under the skin, and • an osmotic pump placed in the peritoneal cavity."}, "liver mitochondria": {"tested_on": "liver mitochondria", "experiment": "Rate of liver mitochondrial oxygen consumption (JO2) of treated Wistar rats", "assay_type": "in vivo, rat", "settings": "high dose 250 μg/kg BW/day, various substrates, vs placebo", "protocol": "as §2, §3"}, "[7]": {"settings": "Wistar rats, high dose 250 μg/kg BW/day"}, "[8]": {"settings": "high dose 25 μg/100 g BW pellet"}}, "data": [{"smiles": "NC(Cc1cc(I)c(Oc2ccc(O)cc2)c(I)c1)C(=O)O", "note": "(centres unmarked) [3,5-T2]", "values": [{"measurement": "Fat deposit", "setting": "[1]", "result": "less fat deposit"}, {"measurement": "Weight gain", "setting": "[1]", "result": "gained less weight"}]}, {"smiles": "N[C@@H](Cc1cc(I)c(Oc2cc(I)c(O)c(I)c2)c(I)c1)C(=O)O", "note": "[T4, thyroxine]", "values": [{"measurement": "Binding to the nuclear (TH) receptors", "setting": "[2]", "result": "binds less efficiently"}]}, {"smiles": "N[C@@H](Cc1ccc(Oc2ccc(O)c(I)c2)c(I)c1)C(=O)O", "note": "[3,3′-T2, 3′,3-diiodothyronine]", "values": [{"measurement": "Cholesterol plasmatic concentration", "setting": "Wistar rats [3]; Wistar rats, 250 μg/kg BW/day", "result": "significantly lower"}, {"measurement": "Plasma free fatty acids (FFA)", "setting": "Wistar rats [3]; [7]", "result": "higher"}, {"measurement": "Triglycerides plasmatic concentration", "setting": "Wistar rats [3]; [7]", "result": "significantly lower"}, {"measurement": "Fasting glucose plasmatic concentration", "setting": "Wistar rats [3]; normal (non diabetic) Wistar rats, 250 μg/kg BW/day", "result": "slightly increased"}, {"measurement": "Respiratory quotient (RQ) during the day (diurnal period)", "setting": "Wistar rats [4]", "result": "lower than that of placebo"}, {"measurement": "Respiratory quotient (RQ) during the night", "setting": "Wistar rats [4]", "result": "almost the same as those described for rT3"}, {"measurement": "Muscle mitochondrial respiration, non-phosphorylating (state 4)", "setting": "muscle mitochondria", "result": "failed to substantially affect"}, {"measurement": "Muscle mitochondrial respiration, phosphorylating (state 3)", "setting": "muscle mitochondria", "result": "failed to substantially affect"}, {"measurement": "Fat mass", "setting": "Wistar rats [5]; 250 μg/kg BW pellet", "result": "significantly decreased"}, {"measurement": "Brown adipose tissue mass", "setting": "Wistar rats [5]; [8]", "result": "significantly increased"}, {"measurement": "Muscle mass (lean body mass)", "setting": "Wistar rats [5]; [8]", "result": "not affected"}, {"measurement": "Food intake immediately after the pellet", "setting": "Wistar rats [6]; 25 μg/100 g BW pellet, from day 4 until day 7", "result": "decrease"}, {"measurement": "Food intake (appetite)", "setting": "Wistar rats [6]; high dose 25 μg/100 g BW pellet, 21 days, vs placebo", "result": "higher value as compared to those of placebo animals"}, {"measurement": "Growth rate (body weight)", "setting": "Wistar rats [6]; high dose 25 μg/100 g BW, subcutaneous pellet, 21 days, vs placebo", "result": "did not show any weight gain"}, {"measurement": "Liver mitochondrial respiratory rate, non-phosphorylating (state 4, oligomycin)", "setting": "liver mitochondria", "result": "much higher as compared to placebo"}, {"measurement": "Liver mitochondrial respiratory rate, phosphorylating (state 3, ADP)", "setting": "liver mitochondria", "result": "very significant increased respiratory rate"}]}, {"smiles": "N[C@@H](Cc1cc(I)c(Oc2ccc(O)c(I)c2)c(I)c1)C(=O)O", "note": "[T3]", "values": [{"measurement": "Binding to the nuclear (TH) receptors", "setting": "[2]", "result": "binds very efficiently"}]}]}
